What was measured:
[1] = test system: N87 gastric xenografts; assay: N87 gastric xenograft model; format: in vivo, mouse; conditions: for tumor volume: dose 5 mg/kg intravenously Q4d×4
Experimental: Similar in vivo experiments were performed with the N87 gastric cancer cell line as described above. To generate xenografts, nude (Nu/Nu) female mice were implanted subcutaneously with 8×10^6 N87 cells in 50% Matrigel (BD Biosciences).
The N87 gastric model was also dosed intravenously Q4d×4 with PBS vehicle, rat-human chimeric anti-Notch3 ADCs and control huNeg-8.8 ADCs, at a dose of 5 mg/kg as provided in FIG. 16D.
The N87 gastric model was also dosed intravenously Q4d×4 with PBS vehicle and rat-human chimeric anti-Notch3 ADCs ch28-mc0131, ch75-mc0131, ch28-m(H2O)c-0131 and ch75-m(H2O)c-0131 at a dose of 5 mg/kg as provided in FIG. 16E.

[2] = test system: 37622A1 NSCLC patient-derived xenografts; assay: 37622A1 patient derived NSCLC xenograft model; format: in vivo, mouse; conditions: 5 mg/kg Q4dx4
Description: The effects of anti-Notch3 ADCs were examined in immunodeficient mice on the in vivo growth of human tumor xenografts that were established from fragments of freshly resected 37622A1 NSCLC tumors obtained in accordance with appropriate consent procedures (Asterand). The 37622A1 NSCLC patient-derived xenografts were subcutaneously passaged in vivo as fragments from animal to animal in nude (Nu/Nu) female mice. When the tumors reached a volume of 150 to 300 mm^3, they were staged to ensure uniformity of the tumor size among various treatment groups. The 37622A1 NSCLC patient-derived xenografts model was dosed intravenously four times every four days (Q4d×4) with PBS vehicle, humanized anti-Notch3 ADCs, control huNeg-8.8 ADCs and cisplatin at the doses provided in Table 19.

[3] = biological target: T1, human Notch2 NRR-Fc (Homo sapiens, UniProt Q04721); assay: Binding to Notch2 NRR-Fc; conditions: N/B = non-binding
T1 construct: Expression constructs encoding human Notch1 and Notch2 NRR regions, fused with human IgG1 Fc fragments; made in house; host or cells: CHO-PACE cells
T1 sequence (Q04721 1425-1677 limits assumed): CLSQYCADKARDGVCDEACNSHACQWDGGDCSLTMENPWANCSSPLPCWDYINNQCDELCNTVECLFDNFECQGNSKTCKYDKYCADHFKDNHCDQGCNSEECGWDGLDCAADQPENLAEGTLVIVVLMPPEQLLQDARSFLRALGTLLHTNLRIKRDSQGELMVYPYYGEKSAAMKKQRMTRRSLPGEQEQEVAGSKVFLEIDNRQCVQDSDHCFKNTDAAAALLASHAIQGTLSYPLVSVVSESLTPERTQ
Description: Other members of the Notch receptor family play important roles in biological processes. For example, a Notch1 or Notch2 deficiency leads to embryonic death in mouse models. In contrast, a Notch4 deficiency results in no detectable phenotype in mouse models. The closest homologues of the Notch3 NRR region are Notch1 and Notch2 (˜50% homology), and Notch4 is a more distant homologue (˜30% homology). Cross-reactivity of anti-Notch3 antibodies to other members of the Notch family, especially Notch1 and 2, may lead to undesired effects in patients. Therefore, the potential cross-reactivity of r28 and hu28, along with r75 and hu75 to other Notch family members were assessed.
Expression constructs encoding human Notch1 and Notch2 NRR regions, fused with human IgG1 Fc fragments were stably introduced into CHO-PACE cells. Conditioned media from these cells expressing NRR-Fc fusions were collected. Human Notch2 NRR-Fc and human Notch1 NRR-Fc were purified by protein A affinity followed by size exclusion chromatography (SEC). Purified preparations were dialysed into TBS with 1 mM CaCl2 and analyzed on analytical SEC to be >99% in purity.

[4] = test system: MDA-MB-468 (breast cancer); assay: In vitro cytotoxicity (MTS), MDA-MB-468; format: cell-based, human; conditions: Table 13; four days; LP = lacked potency
Experimental: (§1) The effects of anti-Notch3 ADCs were assessed on 1) cell lines endogenously expressing Notch3 protein: HCC2429 (lung cancer), OVCAR3 (ovarian cancer) and MDA-MB-468 (breast cancer), 2) cell lines engineered to over-express full length human Notch3 protein: MDA-MB-468/hNotch3 and U2OS/hNotch3, and 3) a negative control cell line (SW900) using an MTS cellular viability indicator (Promega, Madison, Wis.). These cell lines were cultured with increasing concentrations of anti-Notch3 ADCs comprising rat-human chimeric anti-Notch3 antibodies, ch28 and ch75, and humanized anti-Notch3 antibodies, hu28 and hu75, conjugated to various linker-payload combinations of the present invention. As a specificity control for the anti-Notch3-ADCs, non-targeted control-ADCs (huNeg8.8-ADCs or ch2H6-ADCs) were also tested on the same cell lines. After four days, viability of each culture was assessed. IC50 values were calculated by logistic non-linear regression, model #203 with XL fit v4.2 (IDBS, Guildford, Surry, UK) and presented as ng Ab/mL. The drug antibody ratio (DAR) is also provided.

[5] = test system: OVCAR3 (ovarian cancer); assay: In vitro cytotoxicity (MTS), OVCAR3; format: cell-based, human; conditions: Table 13; four days; LP = lacked potency
Experimental: as §1
(§2) This process generated the anti-Notch3 cysteine mutant ADCs: hu28-(L443C)-vc0101 and hu28-(L443C/κK183C)-vc0101. The activity of the anti-Notch3 cysteine mutant ADCs were assessed on cell lines endogenously expressing Notch3 protein: HCC2429 (lung cancer) and OVCAR3 (ovarian cancer) using an MTS cellular viability indicator as described in previous Examples.

[6] = test system: HCC2429 (lung cancer); assay: In vitro cytotoxicity (MTS), HCC2429; format: cell-based, human; conditions: Table 13; four days; LP = lacked potency
Experimental: as §1, §2

[7] = biological target: T2, MDA-MB-468/hNotch3 (Homo sapiens, UniProt Q9UM47); assay: In vitro cytotoxicity (MTS), MDA-MB-468/hNotch3; format: cell-based; conditions: Table 13; four days; LP = lacked potency
T2 construct: cell lines engineered to over-express full length human Notch3 protein: MDA-MB-468/hNotch3 and U2OS/hNotch3; expressed in transfected cells; host or cells: MDA-MB-468
T2 sequence (Q9UM47 40-2321): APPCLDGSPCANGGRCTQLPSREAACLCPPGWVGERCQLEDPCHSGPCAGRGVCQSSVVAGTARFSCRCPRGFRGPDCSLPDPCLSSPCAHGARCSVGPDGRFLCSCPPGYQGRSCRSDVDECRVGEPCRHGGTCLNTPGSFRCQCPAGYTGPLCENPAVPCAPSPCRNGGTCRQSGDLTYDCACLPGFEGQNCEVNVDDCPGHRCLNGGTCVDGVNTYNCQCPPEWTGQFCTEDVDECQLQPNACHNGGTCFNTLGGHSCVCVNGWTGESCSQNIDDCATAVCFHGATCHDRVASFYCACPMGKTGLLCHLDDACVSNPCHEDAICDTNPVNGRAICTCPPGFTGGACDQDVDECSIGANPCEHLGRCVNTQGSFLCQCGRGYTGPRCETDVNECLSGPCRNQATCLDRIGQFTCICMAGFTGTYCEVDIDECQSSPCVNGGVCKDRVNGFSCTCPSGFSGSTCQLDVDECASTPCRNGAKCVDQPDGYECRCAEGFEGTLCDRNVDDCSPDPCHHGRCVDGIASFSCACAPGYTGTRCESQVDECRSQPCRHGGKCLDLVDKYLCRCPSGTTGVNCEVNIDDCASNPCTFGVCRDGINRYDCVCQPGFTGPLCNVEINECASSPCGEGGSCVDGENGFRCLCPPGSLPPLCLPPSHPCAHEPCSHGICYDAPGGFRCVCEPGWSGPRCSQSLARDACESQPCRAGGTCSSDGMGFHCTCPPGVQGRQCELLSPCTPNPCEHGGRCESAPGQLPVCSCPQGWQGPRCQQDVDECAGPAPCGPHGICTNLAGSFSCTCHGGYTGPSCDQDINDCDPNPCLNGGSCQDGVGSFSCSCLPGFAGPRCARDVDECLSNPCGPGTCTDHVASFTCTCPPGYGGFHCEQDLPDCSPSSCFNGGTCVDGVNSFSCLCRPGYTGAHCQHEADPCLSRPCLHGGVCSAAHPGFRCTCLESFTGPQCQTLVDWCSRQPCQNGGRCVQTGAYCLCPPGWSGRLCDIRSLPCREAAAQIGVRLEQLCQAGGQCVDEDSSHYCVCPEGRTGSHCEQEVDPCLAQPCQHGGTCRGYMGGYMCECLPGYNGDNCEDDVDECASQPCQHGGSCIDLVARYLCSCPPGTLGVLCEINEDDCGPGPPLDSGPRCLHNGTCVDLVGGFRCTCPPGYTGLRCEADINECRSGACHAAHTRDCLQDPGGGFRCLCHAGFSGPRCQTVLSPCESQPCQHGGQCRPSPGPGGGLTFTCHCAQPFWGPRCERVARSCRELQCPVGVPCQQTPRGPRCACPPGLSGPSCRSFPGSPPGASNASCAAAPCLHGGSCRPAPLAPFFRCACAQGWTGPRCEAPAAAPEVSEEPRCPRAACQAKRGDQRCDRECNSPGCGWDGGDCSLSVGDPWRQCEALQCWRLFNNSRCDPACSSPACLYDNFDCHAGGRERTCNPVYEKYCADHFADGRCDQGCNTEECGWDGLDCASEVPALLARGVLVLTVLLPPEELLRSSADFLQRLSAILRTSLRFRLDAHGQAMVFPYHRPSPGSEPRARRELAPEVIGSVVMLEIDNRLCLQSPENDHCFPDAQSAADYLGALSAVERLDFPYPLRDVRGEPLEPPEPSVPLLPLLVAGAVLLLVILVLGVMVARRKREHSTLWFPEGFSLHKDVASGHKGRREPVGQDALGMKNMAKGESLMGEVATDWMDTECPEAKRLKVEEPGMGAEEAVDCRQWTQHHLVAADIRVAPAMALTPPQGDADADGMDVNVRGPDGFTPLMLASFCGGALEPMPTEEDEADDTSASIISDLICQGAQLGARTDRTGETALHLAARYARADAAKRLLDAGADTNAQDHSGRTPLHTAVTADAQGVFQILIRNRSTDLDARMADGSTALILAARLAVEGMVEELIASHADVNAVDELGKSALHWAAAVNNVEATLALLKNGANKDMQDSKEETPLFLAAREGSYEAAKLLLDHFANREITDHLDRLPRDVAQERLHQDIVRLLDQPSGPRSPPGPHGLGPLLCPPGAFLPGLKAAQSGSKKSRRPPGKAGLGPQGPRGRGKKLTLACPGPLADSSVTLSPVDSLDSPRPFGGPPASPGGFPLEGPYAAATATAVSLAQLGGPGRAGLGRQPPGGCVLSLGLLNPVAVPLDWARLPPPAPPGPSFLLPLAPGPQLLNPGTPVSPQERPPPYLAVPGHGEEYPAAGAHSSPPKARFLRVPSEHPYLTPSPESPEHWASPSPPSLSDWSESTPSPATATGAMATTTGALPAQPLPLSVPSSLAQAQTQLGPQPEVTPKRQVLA
Experimental: as §1

Molecule `N.N.[Cl][Pt][Cl]` [Cisplatin, reference compound] has a tumor volume ([1]; DAY 0) of 328 mm^3, a tumor volume ([1]; DAY 4) of 414 mm^3 and a tumor volume ([1]; DAY 7) of 520 mm^3. It also gave a tumor volume ([1]; DAY 11) of 501 mm^3, a tumor volume ([1]; DAY 14) of 637 mm^3 and a tumor volume ([2]; Day 4) of 226 mm^3. The tumor volume ([2]; Day 7) was 280 mm^3, the tumor volume ([2]; Day 11) was 301 mm^3 and the tumor volume ([2]; Day 14) was 345 mm^3. It also gave a tumor volume ([2]; Day 18) of 309 mm^3, a tumor volume ([2]; Day 21) of 373 mm^3 and a tumor volume ([2]; Day 25) of 401 mm^3. For the same molecule, the tumor volume ([2]; Day 28) was 446 mm^3, the tumor volume ([2]; Day 32) was 482 mm^3 and the tumor volume ([2]; Day 35) was 587 mm^3. For the same molecule, the tumor volume ([2]; Day 39) was 591 mm^3, the tumor volume ([2]; Day 42) was 612 mm^3 and the tumor volume ([2]; Day 46) was 723 mm^3. For the same molecule, the tumor volume ([2]; Day 49) was 853 mm^3, the tumor volume ([2]; Day 53) was 970 mm^3 and the tumor volume ([2]; Day 56) was 1215 mm^3. It also gave a tumor volume ([2]; Day 60) of 1428 mm^3 and a tumor volume ([2]; Day -1) of 185 mm^3.

B1: r28: parental rat anti-Notch3 antibody clone 28 (VH SEQ ID NO: 5, VL SEQ ID NO: 7) (antibody, V domains shown)
VH: EVQLVESGGGLVQPGRSLTLSCVASGFTFRDYGMTWIRQAPGKGLTWVAYISSGSNYIYYAEAVKGRFTISRDNAKNTLYLQMTSLRSEDTALYFCTRRGPFVLDAWGQGASVTVSS
VL: DIQMTQSPSFLSASVGDRVTINCKASQSINRYLHWFQQKLGEAPKLLIYNANGLQTGIPSRFSGSGSGTDFTLTISSLQSEDVATYFCLQHNTWPDTFGAGTKLELK
B1 was tested, and the “Binding to Notch2 NRR-Fc” value [3] was “lacked detectable binding”.

B2: ch28-mc0131 (conjugate)
VH: EVQLVESGGGLVQPGRSLTLSCVASGFTFRDYGMTWIRQAPGKGLTWVAYISSGSNYIYYAEAVKGRFTISRDNAKNTLYLQMTSLRSEDTALYFCTRRGPFVLDAWGQGASVTVSS
VL: DIQMTQSPSFLSASVGDRVTINCKASQSINRYLHWFQQKLGEAPKLLIYNANGLQTGIPSRFSGSGSGTDFTLTISSLQSEDVATYFCLQHNTWPDTFGAGTKLELK
With B2 the “IC50 (ng Ab/mL) ± S.E.M., MDA-MB-468” value [4] was 35 ± 18.5 ng Ab/mL, the “growth of N87 gastric xenografts” value ([1]; 5 mg/kg iv Q4dx4, FIG. 16D, 16E) was “inhibited growth of N87 gastric xenografts” and the “IC50 (ng Ab/mL) ± S.E.M., OVCAR3” value [5] was 6 ± 1.0 ng Ab/mL. For the same molecule, the “IC50 (ng Ab/mL) ± S.E.M., HCC2429” value [6] was 251 ± 77.5 ng Ab/mL.

B3: r75: parental rat anti-Notch3 antibody clone 75 (VH SEQ ID NO: 9, VL SEQ ID NO: 11) (antibody, V domains shown)
VH: QVKLLQSGAALVKPGASVKMSCKASGYAFTDYWVTWVKQSHGKSLEWIGEISPNSGGTNFNEKFKGKATLTVDKSTSTAYMELSRLTSEDSAIYYCTRGEIRYNWFAYWGQGTLVTVSS
VL: DIQMTQSPSSLSASVGDRVTITCKASQNVGNNIAWYQQKPGKAPKLLIYYASNRYTGVPSRFSGSGYGTDFTLTISSLQPEDFATYYCQRLYNSPFTFGGGTKVEIK
For B3, the “Binding to Notch2 NRR-Fc” value [3] was “lacked detectable binding”.

B4: ch75-vc6780 (conjugate)
VH: QVKLLQSGAALVKPGASVKMSCKASGYAFTDYWVTWVKQSHGKSLEWIGEISPNSGGTNFNEKFKGKATLTVDKSTSTAYMELSRLTSEDSAIYYCTRGEIRYNWFAYWGQGTLVTVSS
VL: DIQMTQSPSSLSASVGDRVTITCKASQNVGNNIAWYQQKPGKAPKLLIYYASNRYTGVPSRFSGSGYGTDFTLTISSLQPEDFATYYCQRLYNSPFTFGGGTKVEIK
For B4, the “IC50 (ng Ab/mL) ± S.E.M., MDA-MB-468/hNotch3” value [7] was 21 ± 3.5 ng Ab/mL, the “IC50 (ng Ab/mL) ± S.E.M., MDA-MB-468” value [4] was 6873 ± 4230.0 ng Ab/mL and the “IC50 (ng Ab/mL) ± S.E.M., OVCAR3” value [5] was 922 ng Ab/mL. For the same molecule, the “IC50 (ng Ab/mL) ± S.E.M., HCC2429” value [6] was 1004 ± 177.0 ng Ab/mL.

B5: ch75-vc0101: ch75 conjugated to vc0101 linker-payload (conjugate)
VH: QVKLLQSGAALVKPGASVKMSCKASGYAFTDYWVTWVKQSHGKSLEWIGEISPNSGGTNFNEKFKGKATLTVDKSTSTAYMELSRLTSEDSAIYYCTRGEIRYNWFAYWGQGTLVTVSS
VL: DIQMTQSPSSLSASVGDRVTITCKASQNVGNNIAWYQQKPGKAPKLLIYYASNRYTGVPSRFSGSGYGTDFTLTISSLQPEDFATYYCQRLYNSPFTFGGGTKVEIK
With B5 the “IC50 (ng Ab/mL) ± S.E.M., MDA-MB-468/hNotch3” value [7] was 24 ± 4.0 ng Ab/mL, the “IC50 (ng Ab/mL) ± S.E.M., MDA-MB-468” value [4] was 4064 ± 1793.9 ng Ab/mL and the “IC50 (ng Ab/mL) ± S.E.M., HCC2429” value [6] was 2112 ± 826.0 ng Ab/mL.

— patent publication US9433687B2, “Anti-Notch3 antibodies and antibody-drug conjugates” (Pfizer Inc., priority 2012, dated 2016)
